Assay results from ChEMBL document CHEMBL6153102, “Rational Design, Synthesis, and Biological Evaluation of Novel c-Met Degraders for Lung Cancer Therapy” (J Med Chem, 2025).
Calls of active or inactive are those of the source. The calls are words filed in the database; no cut-off is given here.

Columns and labels:
[1] = target: T1, Protein cereblon/Hepatocyte growth factor receptor (Homo sapiens, UniProt P08581+Q96SW2); experiment: PROTAC activity at c-Met/CRBN in human A549 cells assessed as reduction in c-Met level incubated for 24 hrs by Western blotting analysis; format: cell-based
Target sequence in this assay (P08581 whole entry): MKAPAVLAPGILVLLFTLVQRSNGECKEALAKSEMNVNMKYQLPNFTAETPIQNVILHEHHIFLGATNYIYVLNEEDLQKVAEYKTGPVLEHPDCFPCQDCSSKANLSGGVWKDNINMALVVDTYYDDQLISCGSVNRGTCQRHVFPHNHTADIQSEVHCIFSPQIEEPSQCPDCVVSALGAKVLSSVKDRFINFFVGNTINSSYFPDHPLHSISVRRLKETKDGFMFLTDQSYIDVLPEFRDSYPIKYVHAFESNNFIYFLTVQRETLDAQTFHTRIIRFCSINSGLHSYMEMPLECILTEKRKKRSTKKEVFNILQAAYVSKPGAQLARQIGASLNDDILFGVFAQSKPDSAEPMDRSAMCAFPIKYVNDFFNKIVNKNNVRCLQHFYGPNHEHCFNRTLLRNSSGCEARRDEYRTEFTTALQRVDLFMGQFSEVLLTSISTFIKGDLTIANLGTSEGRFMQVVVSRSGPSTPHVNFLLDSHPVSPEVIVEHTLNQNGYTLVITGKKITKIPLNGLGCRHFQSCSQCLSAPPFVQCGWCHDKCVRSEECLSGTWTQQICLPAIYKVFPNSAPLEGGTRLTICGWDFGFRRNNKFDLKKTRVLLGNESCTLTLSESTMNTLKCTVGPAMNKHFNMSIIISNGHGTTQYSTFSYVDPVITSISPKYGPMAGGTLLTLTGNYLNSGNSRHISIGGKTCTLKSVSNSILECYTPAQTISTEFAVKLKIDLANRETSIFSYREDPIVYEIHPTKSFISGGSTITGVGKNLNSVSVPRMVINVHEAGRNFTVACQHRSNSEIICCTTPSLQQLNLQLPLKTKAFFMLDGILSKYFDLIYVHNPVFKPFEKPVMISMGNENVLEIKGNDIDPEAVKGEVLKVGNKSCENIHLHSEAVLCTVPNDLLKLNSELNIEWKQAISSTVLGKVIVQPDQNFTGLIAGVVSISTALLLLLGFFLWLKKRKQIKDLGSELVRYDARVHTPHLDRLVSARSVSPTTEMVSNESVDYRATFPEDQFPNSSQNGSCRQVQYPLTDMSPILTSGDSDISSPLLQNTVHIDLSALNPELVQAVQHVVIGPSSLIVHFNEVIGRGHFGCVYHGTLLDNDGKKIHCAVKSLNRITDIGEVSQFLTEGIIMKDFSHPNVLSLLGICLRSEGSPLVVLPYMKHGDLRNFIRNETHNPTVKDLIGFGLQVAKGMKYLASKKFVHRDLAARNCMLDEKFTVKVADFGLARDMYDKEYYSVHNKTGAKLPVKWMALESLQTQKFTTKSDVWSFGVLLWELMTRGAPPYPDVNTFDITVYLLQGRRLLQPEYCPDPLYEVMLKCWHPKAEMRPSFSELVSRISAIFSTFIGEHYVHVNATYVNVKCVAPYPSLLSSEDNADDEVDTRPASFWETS
Target sequence in this assay (Q96SW2 whole entry): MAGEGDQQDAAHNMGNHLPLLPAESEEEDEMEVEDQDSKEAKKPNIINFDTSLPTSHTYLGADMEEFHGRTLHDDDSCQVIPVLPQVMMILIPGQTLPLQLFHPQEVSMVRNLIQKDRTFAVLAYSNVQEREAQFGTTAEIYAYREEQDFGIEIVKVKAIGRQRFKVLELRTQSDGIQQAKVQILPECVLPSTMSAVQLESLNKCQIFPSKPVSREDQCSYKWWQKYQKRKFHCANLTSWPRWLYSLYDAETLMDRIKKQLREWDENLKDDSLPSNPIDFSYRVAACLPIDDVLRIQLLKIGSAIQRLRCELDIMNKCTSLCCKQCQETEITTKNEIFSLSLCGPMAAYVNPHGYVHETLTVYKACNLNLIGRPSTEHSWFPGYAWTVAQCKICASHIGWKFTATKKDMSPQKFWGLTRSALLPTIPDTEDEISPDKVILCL

[2] = tested on: EBC-1; experiment: Induction of apoptosis in human EBC-1 cells assessed as late apoptotic cells at 15 nM incubated for 24 hrs by Annexin V/FITC staining based flow cytometry analysis (reference value: 1.65 %); format: functional
[3] = target: T1, Protein cereblon/Hepatocyte growth factor receptor; experiment: PROTAC activity at c-Met/CRBN in human EBC-1 cells assessed as induction of c-Met degradation at 15.6 nM by Western blotting analysis; format: cell-based; conditions: time 72.0 hrs
Target sequence in this assay (P08581 25-1390 limits assumed): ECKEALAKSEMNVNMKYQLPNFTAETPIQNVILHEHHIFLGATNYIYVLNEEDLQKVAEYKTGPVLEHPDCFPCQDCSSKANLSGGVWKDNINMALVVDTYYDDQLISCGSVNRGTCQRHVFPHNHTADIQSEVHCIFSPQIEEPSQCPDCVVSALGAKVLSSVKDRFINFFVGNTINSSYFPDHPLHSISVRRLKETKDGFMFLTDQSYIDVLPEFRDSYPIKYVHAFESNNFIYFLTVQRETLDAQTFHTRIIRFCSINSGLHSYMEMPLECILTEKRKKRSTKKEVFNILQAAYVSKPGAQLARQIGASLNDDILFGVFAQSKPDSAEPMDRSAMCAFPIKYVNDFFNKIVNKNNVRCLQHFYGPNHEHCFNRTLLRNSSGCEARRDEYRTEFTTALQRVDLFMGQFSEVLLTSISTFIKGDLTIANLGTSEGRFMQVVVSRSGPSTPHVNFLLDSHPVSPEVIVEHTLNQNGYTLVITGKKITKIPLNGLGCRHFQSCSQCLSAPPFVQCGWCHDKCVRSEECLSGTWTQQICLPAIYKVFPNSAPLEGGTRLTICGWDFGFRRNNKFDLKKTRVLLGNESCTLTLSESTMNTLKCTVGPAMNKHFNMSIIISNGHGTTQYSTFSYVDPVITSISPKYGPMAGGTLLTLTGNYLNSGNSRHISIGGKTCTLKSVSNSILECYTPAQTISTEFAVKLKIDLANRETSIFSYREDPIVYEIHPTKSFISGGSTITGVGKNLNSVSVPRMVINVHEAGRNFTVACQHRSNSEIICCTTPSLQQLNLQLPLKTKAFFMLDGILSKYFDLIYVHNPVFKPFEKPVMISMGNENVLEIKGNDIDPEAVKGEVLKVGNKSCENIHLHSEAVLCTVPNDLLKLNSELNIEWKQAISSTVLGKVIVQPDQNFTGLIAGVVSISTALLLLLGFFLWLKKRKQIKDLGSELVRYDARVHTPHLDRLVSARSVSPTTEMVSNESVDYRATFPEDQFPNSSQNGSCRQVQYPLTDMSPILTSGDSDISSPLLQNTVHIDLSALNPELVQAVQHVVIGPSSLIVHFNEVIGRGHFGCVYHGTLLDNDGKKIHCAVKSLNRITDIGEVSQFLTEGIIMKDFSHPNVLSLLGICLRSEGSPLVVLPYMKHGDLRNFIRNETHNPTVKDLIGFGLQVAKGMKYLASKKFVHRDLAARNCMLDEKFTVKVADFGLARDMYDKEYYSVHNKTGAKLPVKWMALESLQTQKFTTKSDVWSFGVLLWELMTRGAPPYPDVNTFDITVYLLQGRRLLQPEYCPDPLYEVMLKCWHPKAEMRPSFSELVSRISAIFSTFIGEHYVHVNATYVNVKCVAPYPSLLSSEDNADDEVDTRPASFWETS
Target sequence in this assay (Q96SW2 whole entry partner): as the sequence (Q96SW2 whole entry) above

[4] = Stability in rat plasma assessed as half life; format: ADME, cell-free
[5] = MRT (0 to t) in Sprague-Dawley rat at 5 mg/kg, ip measured upto 24 hrs by LC-MS/MS analysis; format: ADME, organism-based; conditions: in vivo
[6] = tested on: EBC-1; experiment: Induction of apoptosis in human EBC-1 cells assessed as necrotic cells at 5 nM incubated for 24 hrs by Annexin V/FITC staining based flow cytometry analysis (reference value: 0.35 %); format: functional
[7] = target: T1, Protein cereblon/Hepatocyte growth factor receptor; experiment: PROTAC activity at c-Met/CRBN in human EBC-1 cells assessed as reduction in HELLS level at 15.6 nM incubated for 24 hrs by proteomics analysis; format: cell-based
Target sequence in this assay (P08581 25-1390 limits assumed): as the sequence (P08581 25-1390 limits assumed) above
Target sequence in this assay (Q96SW2 whole entry partner): as the sequence (Q96SW2 whole entry) above

[8] = tested on: EBC-1; experiment: Induction of apoptosis in human EBC-1 cells assessed as upregulation of cleaved caspase-3 level incubated for 24 hrs by Western blot analysis; format: functional, cell-based; conditions: dose 5-50 nM
[9] = tested on: EBC-1; experiment: Antitumor activity against human EBC-1 cells xenografted BALB/c nude mouse assessed as reduction in tumor volume at 20 mg/kg, ip administered for 7 days; format: functional; parameters: scale not given: the % may be the effect or the level left; conditions: time 7 day
[10] = Cmax in Sprague-Dawley rat at 2 mg/kg, iv measured upto 24 hrs by LC-MS/MS analysis; format: ADME, organism-based; conditions: in vivo
[11] = tested on: EBC-1; experiment: Induction of apoptosis in human EBC-1 cells assessed as late apoptotic cells at 50 nM incubated for 24 hrs by Annexin V/FITC staining based flow cytometry analysis (reference value: 1.65 %); format: functional
[12] = target: T1, Protein cereblon/Hepatocyte growth factor receptor; experiment: PROTAC activity at c-Met/CRBN in human A549 cells assessed as induction of c-Met degradation incubated for 24 hrs by Western blotting analysis; format: cell-based
Target sequence in this assay (P08581 whole entry): as the sequence (P08581 whole entry) above
Target sequence in this assay (Q96SW2 whole entry): as the sequence (Q96SW2 whole entry) above

[13] = AUC (0 to infinity) in Sprague-Dawley rat at 5 mg/kg, ip measured upto 24 hrs by LC-MS/MS analysis; format: ADME, organism-based; conditions: in vivo
[14] = Toxicity in BALB/c nude mouse assessed as liver damage at 10 to 20 mg/kg, ip administered for 7 days by H and E staining based analysis; format: organism-based; conditions: in vivo, 168 h, dose 10-20 mg/kg, time 7 day
[15] = tested on: HCT-116; experiment: Antiproliferative activity against human HCT-116 cells assessed as cell viability incubated for 72 hrs by MTT assay; format: functional, cell-based; conditions: HCT-116, 72 h
[16] = tested on: EBC-1; experiment: Induction of apoptosis in human EBC-1 cells assessed as viable cells at 50 nM incubated for 24 hrs by Annexin V/FITC staining based flow cytometry analysis (reference value: 95.9%); format: functional; conditions: read-out: Activity
[17] = tested on: A549; experiment: Antiproliferative activity against human A549 cells assessed as cell viability incubated for 72 hrs by MTT assay; format: functional, cell-based; conditions: A549, 72 h
[18] = target: T1, Protein cereblon/Hepatocyte growth factor receptor; experiment: PROTAC activity at c-Met/CRBN in human HCT-116 cells assessed as reduction in c-Met level at 3.9 to 125 nM incubated for 24 hrs in presence of tepotinib by Western blot analysis; format: cell-based; conditions: dose 3.9-125 nM
Target sequence in this assay (P08581 25-1390 limits assumed): as the sequence (P08581 25-1390 limits assumed) above
Target sequence in this assay (Q96SW2 whole entry partner): as the sequence (Q96SW2 whole entry) above

[19] = tested on: EBC-1; experiment: Induction of apoptosis in human EBC-1 cells assessed as early apoptotic cells at 5 nM incubated for 24 hrs by Annexin V/FITC staining based flow cytometry analysis (reference value: 2.11 %); format: functional
[20] = target: T1, Protein cereblon/Hepatocyte growth factor receptor; experiment: PROTAC activity at c-Met/CRBN in human A549 cells assessed as induction of c-Met degradation at 100 nM incubated for 24 hrs by Western blotting analysis relative to control; format: cell-based
Target sequence in this assay (P08581 25-1390 limits assumed): as the sequence (P08581 25-1390 limits assumed) above
Target sequence in this assay (Q96SW2 whole entry partner): as the sequence (Q96SW2 whole entry) above

[21] = target: T1, Protein cereblon/Hepatocyte growth factor receptor; experiment: PROTAC activity at c-Met/CRBN in human EBC-1 cells assessed as induction of c-Met degradation at 15.6 nM incubated for 72 hrs by Western blotting analysis relative to control; format: cell-based
Target sequence in this assay (P08581 25-1390 limits assumed): as the sequence (P08581 25-1390 limits assumed) above
Target sequence in this assay (Q96SW2 whole entry partner): as the sequence (Q96SW2 whole entry) above

[22] = tested on: Hs746T; experiment: Antiproliferative activity against human Hs746T cells assessed as cell viability incubated for 72 hrs by MTT assay; format: functional, cell-based
[23] = target: T1, Protein cereblon/Hepatocyte growth factor receptor; experiment: PROTAC activity at c-Met/CRBN in human HCT-116 cells assessed as induction of c-Met degradation at 15.6 nM by Western blotting analysis; format: cell-based; conditions: time 72.0 hrs
Target sequence in this assay (P08581 25-1390 limits assumed): as the sequence (P08581 25-1390 limits assumed) above
Target sequence in this assay (Q96SW2 whole entry partner): as the sequence (Q96SW2 whole entry) above

[24] = tested on: EBC-1; experiment: Induction of apoptosis in human EBC-1 cells assessed as viable cells at 5 nM incubated for 24 hrs by Annexin V/FITC staining based flow cytometry analysis (reference value: 95.9%); format: functional; conditions: read-out: Activity
[25] = MRT (0 to infinity) in Sprague-Dawley rat at 5 mg/kg, ip measured upto 24 hrs by LC-MS/MS analysis; format: ADME, organism-based; conditions: in vivo
[26] = Toxicity in BALB/c nude mouse assessed as heart damage at 10 to 20 mg/kg, ip administered for 7 days by H and E staining based analysis; format: organism-based; conditions: in vivo, 168 h, dose 10-20 mg/kg, time 7 day
[27] = tested on: EBC-1; experiment: Induction of apoptosis in human EBC-1 cells assessed as necrotic cells at 50 nM incubated for 24 hrs by Annexin V/FITC staining based flow cytometry analysis (reference value: 0.35 %); format: functional
[28] = target: T1, Protein cereblon/Hepatocyte growth factor receptor; experiment: PROTAC activity at c-Met/CRBN in human EBC-1 cells assessed as reduction in UHRF1 level at 15.6 nM incubated for 24 hrs by proteomics analysis; format: cell-based
[29] = target: T1, Protein cereblon/Hepatocyte growth factor receptor; experiment: PROTAC activity at c-Met/CRBN in human EBC-1 cells assessed as reduction in c-Met level at 15.6 nM incubated for 24 hrs by proteomics analysis; format: cell-based
[30] = Tmax in Sprague-Dawley rat at 5 mg/kg, ip measured upto 24 hrs by LC-MS/MS analysis; format: ADME, organism-based; conditions: in vivo
[31] = target: T1, Protein cereblon/Hepatocyte growth factor receptor; experiment: PROTAC activity at c-Met/CRBN in human EBC-1 cells assessed as induction of c-Met degradation at 100 nM incubated for 24 hrs by Western blotting analysis relative to control; format: cell-based
[32] = tested on: MKN-45; experiment: Antiproliferative activity against human MKN-45 cells assessed as cell viability incubated for 72 hrs by MTT assay; format: functional, cell-based; conditions: MKN-45, 72 h
[33] = tested on: EBC-1; experiment: Induction of apoptosis in human EBC-1 cells assessed as late apoptotic cells at 5 nM incubated for 24 hrs by Annexin V/FITC staining based flow cytometry analysis (reference value: 1.65 %); format: functional
[34] = target: T1, Protein cereblon/Hepatocyte growth factor receptor; experiment: PROTAC activity at c-Met/CRBN in human EBC-1 cells assessed as reduction in TXNDC9 level at 15.6 nM incubated for 24 hrs by proteomics analysis; format: cell-based
[35] = target: T1, Protein cereblon/Hepatocyte growth factor receptor; experiment: PROTAC activity at c-Met/CRBN in human EBC-1 cells assessed as reduction in c-Met mRNA level at 3.9 to 125 nM incubated for 24 hrs by qPCR analysis; format: cell-based; conditions: dose 3.9-125 nM
[36] = MRT (0 to t) in Sprague-Dawley rat at 2 mg/kg, iv measured upto 24 hrs by LC-MS/MS analysis; format: ADME, organism-based; conditions: in vivo

COc1ccc(C(=O)N2CCC3(CCN(C(=O)CN4CCC(COc5cnc(-c6cccc(Cn7nc(-c8cccc(C#N)c8)ccc7=O)c6)nc5)CC4)CC3)CC2)cc1N1CCC(=O)NC1=O
DC50 [1]: 41.8 nM
Activity [2]: 3.66%
Activity [3]: Time-dependent-effect
half-life [4]: > 2 h
MRT last at 24 h [5]: 5.06 h
Activity [6]: 0.42%
Activity [7]: Active
Activity [8]: Dose-dependent-effect
Activity [9]: 86.14%
Cmax [10]: 2380 ng/mL
Activity [11]: 3.47%
DC50 [12]: < 15.6 nM
AUC(0-inf) [13]: 678 ng·h/mL
Activity [14]: Non-toxic
IC50 [15]: 6190 nM
viability at 0.05 µM [16]: 62%
IC50 [17]: 16000 nM
Activity [18]: inactive
Activity [19]: 29.7%
Activity [20]: inactive
Activity [21]: 93.1%
IC50 [22]: 8 nM
Activity [23]: Time-dependent-effect
viability at 0.005 µM [24]: 66.4%
MRT inf [25]: 6 h
Activity [26]: Non-toxic
Activity [27]: 0.6%
Activity [28]: Active
Activity [29]: Active
Tmax [30]: 2 h
Activity [31]: 90.3%
IC50 [32]: 10 nM
Activity [33]: 3.43%
Activity [34]: Active
Activity [35]: Active
MRT last at 24 h [36]: 2.49 h
